According to the supplement of paper PMC10307832:

Compound: CN(C)C[C@@H]1CCn2cc(c3ccccc32)C2=C(C(=O)NC2=O)c2cn(c3ccccc23)CCO1 [Ruboxistaurin] + CC(=O)c1c(C)c2cnc(Nc3ccc(N4CCNCC4)cn3)nc2n(C2CCCC2)c1=O [Palbociclib] (partner 0.5 µM)
Assay: relative viability (nuclei count vs DMSO), 5 days (fraction); higher = more cells survive
How it was run: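 Medians of duplicate plates are given as relative viability. That measure is the nuclei count in treated wells divided by the count in vehicle wells. Counts were taken on 4× images of lung cancer cell lines in 1536-well plates, 5 days after pin-tool dosing the day after seeding with one drug alone or a fixed anchor-drug dose plus five library-drug doses (not always all listed) in √10 steps.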

## EMC-BAC-2
First compound 0.08 µM
  relative viability: 0.51
First compound 0.8 µM
  relative viability: 0.506
First compound 2.53 µM
  relative viability: 0.514
First compound 8 µM
  relative viability: 0.493

## NCI-H661
First compound 0.08 µM
  relative viability: 0.424
First compound 0.8 µM
  relative viability: 0.416
First compound 2.53 µM
  relative viability: 0.437
First compound 8 µM
  relative viability: 0.46

## LU99A
First compound 0.08 µM
  relative viability: 0.473
First compound 0.8 µM
  relative viability: 0.388
First compound 2.53 µM
  relative viability: 0.482
First compound 8 µM
  relative viability: 0.31

## LK-2
First compound 0.08 µM
  relative viability: 0.768
First compound 0.8 µM
  relative viability: 0.726
First compound 2.53 µM
  relative viability: 0.75
First compound 8 µM
  relative viability: 0.74

## NCI-H3122
First compound 0.08 µM
  relative viability: 0.176
First compound 0.8 µM
  relative viability: 0.149
First compound 2.53 µM
  relative viability: 0.196
First compound 8 µM
  relative viability: 0.336

## NCI-H2347
First compound 0.08 µM
  relative viability: 0.441
First compound 0.8 µM
  relative viability: 0.425
First compound 2.53 µM
  relative viability: 0.358
First compound 8 µM
  relative viability: 0.42

## HCC-827
First compound 0.08 µM
  relative viability: 0.529
First compound 0.8 µM
  relative viability: 0.478
First compound 2.53 µM
  relative viability: 0.621
First compound 8 µM
  relative viability: 0.489

## NCI-H1666
First compound 0.08 µM
  relative viability: 0.659
First compound 0.8 µM
  relative viability: 0.608
First compound 2.53 µM
  relative viability: 0.606
First compound 8 µM
  relative viability: 0.726

## NCI-H358
First compound 0.08 µM
  relative viability: 0.14
First compound 0.8 µM
  relative viability: 0.128
First compound 2.53 µM
  relative viability: 0.129
First compound 8 µM
  relative viability: 0.131

## 201T
First compound 0.08 µM
  relative viability: 0.357
First compound 0.8 µM
  relative viability: 0.344
First compound 2.53 µM
  relative viability: 0.353
First compound 8 µM
  relative viability: 0.37

## PC-3 [JPC-3]
First compound 0.08 µM
  relative viability: 0.561
First compound 0.8 µM
  relative viability: 0.487
First compound 2.53 µM
  relative viability: 0.518
First compound 8 µM
  relative viability: 0.556

## NCI-H2405
First compound 0.08 µM
  relative viability: 0.545
First compound 0.8 µM
  relative viability: 0.538
First compound 2.53 µM
  relative viability: 0.522
First compound 8 µM
  relative viability: 0.486

## LXF-289
First compound 0.08 µM
  relative viability: 0.589
First compound 0.8 µM
  relative viability: 0.542
First compound 2.53 µM
  relative viability: 0.571
First compound 8 µM
  relative viability: 0.588

## EKVX
First compound 0.08 µM
  relative viability: 0.414
First compound 0.8 µM
  relative viability: 0.318
First compound 2.53 µM
  relative viability: 0.424
First compound 8 µM
  relative viability: 0.321

## A-427
First compound 0.08 µM
  relative viability: 0.554
First compound 0.8 µM
  relative viability: 0.524
First compound 2.53 µM
  relative viability: 0.5
First compound 8 µM
  relative viability: 0.538

## ChaGo-K-1
First compound 0.08 µM
  relative viability: 0.898
First compound 0.8 µM
  relative viability: 0.889
First compound 2.53 µM
  relative viability: 0.933
First compound 8 µM
  relative viability: 0.98

## NCI-H2342
First compound 0.08 µM
  relative viability: 0.456
First compound 0.8 µM
  relative viability: 0.53
First compound 2.53 µM
  relative viability: 0.512
First compound 8 µM
  relative viability: 0.518

## SK-MES-1
First compound 0.08 µM
  relative viability: 0.331
First compound 0.8 µM
  relative viability: 0.27
First compound 2.53 µM
  relative viability: 0.331
First compound 8 µM
  relative viability: 0.361

## LCLC-97TM1
First compound 0.08 µM
  relative viability: 0.217
First compound 0.8 µM
  relative viability: 0.199
First compound 2.53 µM
  relative viability: 0.235
First compound 8 µM
  relative viability: 0.227

## NCI-H2170
First compound 0.08 µM
  relative viability: 0.397
First compound 0.8 µM
  relative viability: 0.337
First compound 2.53 µM
  relative viability: 0.371
First compound 8 µM
  relative viability: 0.386

## NCI-H1993
First compound 0.08 µM
  relative viability: 0.716
First compound 0.8 µM
  relative viability: 0.666
First compound 2.53 µM
  relative viability: 0.712
First compound 8 µM
  relative viability: 0.556

## NCI-H460
First compound 0.08 µM
  relative viability: 0.158
First compound 0.8 µM
  relative viability: 0.125
First compound 2.53 µM
  relative viability: 0.201
First compound 8 µM
  relative viability: 0.14

## NCI-H1975
First compound 0.08 µM
  relative viability: 0.648
First compound 0.8 µM
  relative viability: 0.512
First compound 2.53 µM
  relative viability: 0.637
First compound 8 µM
  relative viability: 0.605

## RERF-LC-KJ
First compound 0.08 µM
  relative viability: 1.17
First compound 0.8 µM
  relative viability: 0.934
First compound 2.53 µM
  relative viability: 1.12
First compound 8 µM
  relative viability: 0.995

## NCI-H322M
First compound 0.08 µM
  relative viability: 0.492
First compound 0.8 µM
  relative viability: 0.47
First compound 2.53 µM
  relative viability: 0.454
First compound 8 µM
  relative viability: 0.384

## NCI-H1651
First compound 0.08 µM
  relative viability: 0.528
First compound 0.8 µM
  relative viability: 0.482
First compound 2.53 µM
  relative viability: 0.531
First compound 8 µM
  relative viability: 0.494

## HARA
First compound 0.08 µM
  relative viability: 0.214
First compound 0.8 µM
  relative viability: 0.263
First compound 2.53 µM
  relative viability: 0.266
First compound 8 µM
  relative viability: 0.326

## H3255
First compound 0.08 µM
  relative viability: 0.318
First compound 0.8 µM
  relative viability: 0.336
First compound 2.53 µM
  relative viability: 0.329
First compound 8 µM
  relative viability: 0.364

## NCI-H441
First compound 0.08 µM
  relative viability: 0.234
First compound 0.8 µM
  relative viability: 0.174
First compound 2.53 µM
  relative viability: 0.248
First compound 8 µM
  relative viability: 0.202

## CAL-12T
First compound 0.08 µM
  relative viability: 0.476
First compound 0.8 µM
  relative viability: 0.426
First compound 2.53 µM
  relative viability: 0.419
First compound 8 µM
  relative viability: 0.483

## ABC-1
First compound 0.08 µM
  relative viability: 0.953
First compound 0.8 µM
  relative viability: 0.724
First compound 2.53 µM
  relative viability: 0.968
First compound 8 µM
  relative viability: 1.05

## NCI-H1792
First compound 0.08 µM
  relative viability: 0.632
First compound 0.8 µM
  relative viability: 0.617
First compound 2.53 µM
  relative viability: 0.645
First compound 8 µM
  relative viability: 0.669

## NCI-H1437
First compound 0.08 µM
  relative viability: 0.337
First compound 0.8 µM
  relative viability: 0.302
First compound 2.53 µM
  relative viability: 0.303
First compound 8 µM
  relative viability: 0.308

## HOP-62
First compound 0.08 µM
  relative viability: 0.516
First compound 0.8 µM
  relative viability: 0.462
First compound 2.53 µM
  relative viability: 0.471
First compound 8 µM
  relative viability: 0.458

## EPLC-272H
First compound 0.08 µM
  relative viability: 0.312
First compound 0.8 µM
  relative viability: 0.352
First compound 2.53 µM
  relative viability: 0.285
First compound 8 µM
  relative viability: 0.317
